Experimental data published in US8633245B2, “PAI-1 inhibitor” (Institute of Medicinal Molecular Design, Inc., priority 2008, dated 2014).

Biological target: T1, recombinant human PAI-1 (Homo sapiens, UniProt P05121)
T1 construct: purchased Molecular Innovations, Inc
Experiment: Test Example 1: human PAI-1 inhibitory activity (tPA fluorogenic substrate, pH 7.5 Tris buffer)
Format: biochemical
Details: Tris buffer
Procedure: 50 mM Tris, 150 mM NaCl, 10 μg/ml BSA, 0.01% Tween80 (SIGMA-ALDRICH Corporation)

T1 sequence (P05121 24-402): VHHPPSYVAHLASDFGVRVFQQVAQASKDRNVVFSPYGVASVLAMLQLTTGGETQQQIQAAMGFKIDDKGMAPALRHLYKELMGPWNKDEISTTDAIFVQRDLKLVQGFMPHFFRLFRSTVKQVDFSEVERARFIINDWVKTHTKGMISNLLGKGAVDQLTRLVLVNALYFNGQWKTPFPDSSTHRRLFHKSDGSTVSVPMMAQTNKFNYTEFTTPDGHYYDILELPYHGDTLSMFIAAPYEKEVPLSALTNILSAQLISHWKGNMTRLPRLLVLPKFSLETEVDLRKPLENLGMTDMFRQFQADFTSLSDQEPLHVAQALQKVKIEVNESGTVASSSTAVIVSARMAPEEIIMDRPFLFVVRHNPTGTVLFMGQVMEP

## Cc1c(-c2ccc(OC(F)(F)F)cc2)cccc1N(Cc1ccc(C(C)(C)C)cc1)C(=O)C(=O)O [Compound 177]
Compound Concentration 5 μM
  Inhibition Rate of PAI-1 Activity (%): 43%
Compound Concentration 10 μM
  Inhibition Rate of PAI-1 Activity (%): 83%
Compound Concentration 25 μM
  Inhibition Rate of PAI-1 Activity (%): 91%

## Cc1cc(-c2ccc(OC(F)(F)F)cc2)cc(N(Cc2ccc(C(C)(C)C)cc2)C(=O)C(=O)O)c1 [Compound 178]
Compound Concentration 5 μM
  Inhibition Rate of PAI-1 Activity (%): 56%
Compound Concentration 10 μM
  Inhibition Rate of PAI-1 Activity (%): 88%
Compound Concentration 25 μM
  Inhibition Rate of PAI-1 Activity (%): 88%

## O=C(O)C(=O)N(Cc1ccccc1)c1c(Cl)cc(-c2ccc(OC(F)(F)F)cc2)cc1Cl [Compound 180]
Compound Concentration 5 μM
  Inhibition Rate of PAI-1 Activity (%): 19%
Compound Concentration 10 μM
  Inhibition Rate of PAI-1 Activity (%): 36%
Compound Concentration 25 μM
  Inhibition Rate of PAI-1 Activity (%): 71%

## O=C(O)C(=O)N(Cc1ccc(O)cc1)c1ccc(-c2ccc(OC(F)(F)F)cc2)cc1 [Compound 181]
Compound Concentration 5 μM
  Inhibition Rate of PAI-1 Activity (%): 10%
Compound Concentration 10 μM
  Inhibition Rate of PAI-1 Activity (%): 11%
Compound Concentration 25 μM
  Inhibition Rate of PAI-1 Activity (%): 31%

## COc1ccc(-c2ccc(OC(F)(F)F)cc2)cc1N(Cc1ccc(C(C)(C)C)cc1)C(=O)C(=O)O [Compound 182]
Compound Concentration 5 μM
  Inhibition Rate of PAI-1 Activity (%): 56%
Compound Concentration 10 μM
  Inhibition Rate of PAI-1 Activity (%): 85%
Compound Concentration 25 μM
  Inhibition Rate of PAI-1 Activity (%): 89%

## O=C(O)C(=O)N(Cc1ccc(OC(F)(F)F)cc1)c1ccc(-c2ccccc2)cc1 [Compound 183]
Compound Concentration 10 μM
  Inhibition Rate of PAI-1 Activity (%): 11%
Compound Concentration 25 μM
  Inhibition Rate of PAI-1 Activity (%): 29%

## Cc1cc(N(Cc2ccc(C(C)(C)C)cc2)C(=O)C(=O)O)ccc1-c1ccc(OC(F)(F)F)cc1 [Compound 184]
Compound Concentration 5 μM
  Inhibition Rate of PAI-1 Activity (%): 59%
Compound Concentration 10 μM
  Inhibition Rate of PAI-1 Activity (%): 86%
Compound Concentration 25 μM
  Inhibition Rate of PAI-1 Activity (%): 85%

## Cc1ccc(N(Cc2ccc(C(C)(C)C)cc2)C(=O)C(=O)O)cc1Oc1ccc(OC(F)(F)F)cc1 [Compound 187]
Compound Concentration 5 μM
  Inhibition Rate of PAI-1 Activity (%): 75%
Compound Concentration 10 μM
  Inhibition Rate of PAI-1 Activity (%): 92%
Compound Concentration 25 μM
  Inhibition Rate of PAI-1 Activity (%): 88%

## CC(C)(C)c1ccc(CN(C(=O)C(=O)O)c2ccc(Cl)cc2Oc2ccc(OC(F)(F)F)cc2)cc1 [Compound 191]
Compound Concentration 5 μM
  Inhibition Rate of PAI-1 Activity (%): 74%
Compound Concentration 10 μM
  Inhibition Rate of PAI-1 Activity (%): 92%
Compound Concentration 25 μM
  Inhibition Rate of PAI-1 Activity (%): 87%

## CCCCCOc1ccc(-c2ccc(OC(F)(F)F)cc2)cc1N(Cc1ccccc1)C(=O)C(=O)O [Compound 195]
Compound Concentration 5 μM
  Inhibition Rate of PAI-1 Activity (%): 77%
Compound Concentration 10 μM
  Inhibition Rate of PAI-1 Activity (%): 94%
Compound Concentration 25 μM
  Inhibition Rate of PAI-1 Activity (%): 93%

## CC(C)(C)c1ccc(CN(C(=O)C(=O)O)c2ccc(-c3ccc(OC(F)(F)F)cc3)c(CCC(=O)O)c2)cc1 [Compound 196]
Compound Concentration 5 μM
  Inhibition Rate of PAI-1 Activity (%): 18%
Compound Concentration 10 μM
  Inhibition Rate of PAI-1 Activity (%): 35%
Compound Concentration 25 μM
  Inhibition Rate of PAI-1 Activity (%): 64%

## CC(C)(C)c1ccc(CN(C(=O)C(=O)O)c2ccc(-c3cccc(OC(F)(F)F)c3)cc2)cc1 [Compound 200]
Compound Concentration 5 μM
  Inhibition Rate of PAI-1 Activity (%): 64%
Compound Concentration 10 μM
  Inhibition Rate of PAI-1 Activity (%): 89%
Compound Concentration 25 μM
  Inhibition Rate of PAI-1 Activity (%): 92%

## CC(C)(C)c1ccc(CN(C(=O)C(=O)O)c2ccc(-c3ccccc3OC(F)(F)F)cc2)cc1 [Compound 201]
Compound Concentration 5 μM
  Inhibition Rate of PAI-1 Activity (%): 64%
Compound Concentration 10 μM
  Inhibition Rate of PAI-1 Activity (%): 89%
Compound Concentration 25 μM
  Inhibition Rate of PAI-1 Activity (%): 82%

## CC(C)(C)c1ccc(-c2ccc(N(Cc3ccccc3OC(F)(F)F)C(=O)C(=O)O)cc2)cc1 [Compound 202]
Compound Concentration 5 μM
  Inhibition Rate of PAI-1 Activity (%): 70%
Compound Concentration 10 μM
  Inhibition Rate of PAI-1 Activity (%): 94%
Compound Concentration 25 μM
  Inhibition Rate of PAI-1 Activity (%): 98%

## CC(C)(C)c1ccc(-c2ccc(N(Cc3cccc(OC(F)(F)F)c3)C(=O)C(=O)O)cc2)cc1 [Compound 203]
Compound Concentration 5 μM
  Inhibition Rate of PAI-1 Activity (%): 69%
Compound Concentration 10 μM
  Inhibition Rate of PAI-1 Activity (%): 91%
Compound Concentration 25 μM
  Inhibition Rate of PAI-1 Activity (%): 97%

## CC(C)(C)c1ccc(-c2ccc(N(Cc3ccc(Cl)cc3)C(=O)C(=O)O)cc2)cc1 [Compound 204]
Compound Concentration 5 μM
  Inhibition Rate of PAI-1 Activity (%): 58%
Compound Concentration 10 μM
  Inhibition Rate of PAI-1 Activity (%): 85%
Compound Concentration 25 μM
  Inhibition Rate of PAI-1 Activity (%): >99%

## CC(C)(C)c1ccc(-c2ccc(N(Cc3ccc(C(F)(F)F)cc3)C(=O)C(=O)O)cc2)cc1 [Compound 205]
Compound Concentration 5 μM
  Inhibition Rate of PAI-1 Activity (%): 50%
Compound Concentration 10 μM
  Inhibition Rate of PAI-1 Activity (%): 80%
Compound Concentration 25 μM
  Inhibition Rate of PAI-1 Activity (%): 98%

## CCC(CC)Oc1ccc(N(Cc2ccc(C(C)(C)C)cc2)C(=O)C(=O)O)c(-c2ccc(OC(F)(F)F)cc2)c1 [Compound 207]
Compound Concentration 5 μM
  Inhibition Rate of PAI-1 Activity (%): 79%
Compound Concentration 10 μM
  Inhibition Rate of PAI-1 Activity (%): 90%

## CC(C)Oc1ccc(N(Cc2ccc(C(C)(C)C)cc2)C(=O)C(=O)O)c(-c2ccc(OC(F)(F)F)cc2)c1 [Compound 209]
Compound Concentration 5 μM
  Inhibition Rate of PAI-1 Activity (%): 81%
Compound Concentration 10 μM
  Inhibition Rate of PAI-1 Activity (%): 98%
Compound Concentration 25 μM
  Inhibition Rate of PAI-1 Activity (%): 94%

## CCCOc1ccc(N(Cc2ccccc2)C(=O)C(=O)O)cc1-c1ccc(OC(F)(F)F)cc1 [Compound 210]
Compound Concentration 5 μM
  Inhibition Rate of PAI-1 Activity (%): 39%
Compound Concentration 10 μM
  Inhibition Rate of PAI-1 Activity (%): 70%
Compound Concentration 25 μM
  Inhibition Rate of PAI-1 Activity (%): 94%

## CC(C)(C)c1ccc(CN(C(=O)C(=O)O)c2ccc(N3CCOCC3)c(-c3ccc(OC(F)(F)F)cc3)c2)cc1 [Compound 216]
Compound Concentration 5 μM
  Inhibition Rate of PAI-1 Activity (%): 75%
Compound Concentration 10 μM
  Inhibition Rate of PAI-1 Activity (%): 88%
Compound Concentration 25 μM
  Inhibition Rate of PAI-1 Activity (%): 84%

## CC(C)(C)c1ccc(CN(C(=O)C(=O)O)c2ccc(N3CCCCC3)c(-c3ccc(OC(F)(F)F)cc3)c2)cc1 [Compound 217]
Compound Concentration 5 μM
  Inhibition Rate of PAI-1 Activity (%): 86%
Compound Concentration 10 μM
  Inhibition Rate of PAI-1 Activity (%): 84%

## CC(C)(C)Oc1ccc(N(Cc2ccc(C(C)(C)C)cc2)C(=O)C(=O)O)cc1-c1ccc(OC(F)(F)F)cc1 [Compound 218]
Compound Concentration 5 μM
  Inhibition Rate of PAI-1 Activity (%): 83%
Compound Concentration 10 μM
  Inhibition Rate of PAI-1 Activity (%): 78%

## CC(C)(C)c1ccc(CN(C(=O)C(=O)O)c2ccc(N3CCCCC3=O)c(-c3ccc(OC(F)(F)F)cc3)c2)cc1 [Compound 219]
Compound Concentration 5 μM
  Inhibition Rate of PAI-1 Activity (%): 33%
Compound Concentration 10 μM
  Inhibition Rate of PAI-1 Activity (%): 58%
Compound Concentration 25 μM
  Inhibition Rate of PAI-1 Activity (%): 86%

## CC(c1ccc(C(C)(C)C)cc1)N(C(=O)C(=O)O)c1ccc(-c2ccc(OC(F)(F)F)cc2)cc1 (stereo not drawn) [Compound 220]
Compound Concentration 5 μM
  Inhibition Rate of PAI-1 Activity (%): 51%
Compound Concentration 10 μM
  Inhibition Rate of PAI-1 Activity (%): 86%
Compound Concentration 25 μM
  Inhibition Rate of PAI-1 Activity (%): 89%

## O=C(O)C(=O)N(CCCc1ccccc1)c1ccc(-c2ccc(OC(F)(F)F)cc2)cc1 [Compound 224]
Compound Concentration 5 μM
  Inhibition Rate of PAI-1 Activity (%): 29%
Compound Concentration 10 μM
  Inhibition Rate of PAI-1 Activity (%): 63%
Compound Concentration 25 μM
  Inhibition Rate of PAI-1 Activity (%): 86%

## O=C(O)C(=O)N(CCCCc1ccccc1)c1ccc(-c2ccc(OC(F)(F)F)cc2)cc1 [Compound 225]
Compound Concentration 5 μM
  Inhibition Rate of PAI-1 Activity (%): 27%
Compound Concentration 10 μM
  Inhibition Rate of PAI-1 Activity (%): 50%
Compound Concentration 25 μM
  Inhibition Rate of PAI-1 Activity (%): 88%

## O=C(O)C(=O)N(CCCCCc1ccccc1)c1ccc(-c2ccc(OC(F)(F)F)cc2)cc1 [Compound 228]
Compound Concentration 5 μM
  Inhibition Rate of PAI-1 Activity (%): 45%
Compound Concentration 10 μM
  Inhibition Rate of PAI-1 Activity (%): 71%
Compound Concentration 25 μM
  Inhibition Rate of PAI-1 Activity (%): 95%

## CCCOc1ccc(N(CCCc2ccccc2)C(=O)C(=O)O)cc1-c1ccc(OC(F)(F)F)cc1 [Compound 229]
Compound Concentration 5 μM
  Inhibition Rate of PAI-1 Activity (%): 48%
Compound Concentration 10 μM
  Inhibition Rate of PAI-1 Activity (%): 80%
Compound Concentration 25 μM
  Inhibition Rate of PAI-1 Activity (%): 94%

## CCCOc1ccc(N(CCCc2ccccc2)C(=O)C(=O)O)c(-c2ccc(OC(F)(F)F)cc2)c1 [Compound 232]
Compound Concentration 5 μM
  Inhibition Rate of PAI-1 Activity (%): 52%
Compound Concentration 10 μM
  Inhibition Rate of PAI-1 Activity (%): 82%
Compound Concentration 25 μM
  Inhibition Rate of PAI-1 Activity (%): 96%

## CCCOc1ccc(-c2ccc(OC(F)(F)F)cc2)cc1N(CCCc1ccccc1)C(=O)C(=O)O [Compound 234]
Compound Concentration 5 μM
  Inhibition Rate of PAI-1 Activity (%): 59%
Compound Concentration 10 μM
  Inhibition Rate of PAI-1 Activity (%): 83%
Compound Concentration 25 μM
  Inhibition Rate of PAI-1 Activity (%): 96%

## CCCCOc1ccc(-c2ccc(OC(F)(F)F)cc2)cc1N(CCCc1ccccc1)C(=O)C(=O)O [Compound 235]
Compound Concentration 5 μM
  Inhibition Rate of PAI-1 Activity (%): 66%
Compound Concentration 10 μM
  Inhibition Rate of PAI-1 Activity (%): 89%
Compound Concentration 25 μM
  Inhibition Rate of PAI-1 Activity (%): 93%

## CCCOc1ccc(-c2ccc(OC(F)(F)F)cc2)cc1N(CCCCc1ccccc1)C(=O)C(=O)O [Compound 236]
Compound Concentration 5 μM
  Inhibition Rate of PAI-1 Activity (%): 61%
Compound Concentration 10 μM
  Inhibition Rate of PAI-1 Activity (%): 86%
Compound Concentration 25 μM
  Inhibition Rate of PAI-1 Activity (%): 95%

## CCC(CC)Oc1ccc(N(CCCc2ccccc2)C(=O)C(=O)O)c(-c2ccc(OC(F)(F)F)cc2)c1 [Compound 237]
Compound Concentration 5 μM
  Inhibition Rate of PAI-1 Activity (%): 75%
Compound Concentration 10 μM
  Inhibition Rate of PAI-1 Activity (%): 92%

## CC(C)Oc1ccc(N(CCCc2ccccc2)C(=O)C(=O)O)c(-c2ccc(OC(F)(F)F)cc2)c1 [Compound 239]
Compound Concentration 5 μM
  Inhibition Rate of PAI-1 Activity (%): 43%
Compound Concentration 10 μM
  Inhibition Rate of PAI-1 Activity (%): 80%
Compound Concentration 25 μM
  Inhibition Rate of PAI-1 Activity (%): 98%

## CCCOc1ccc(N(CCCCc2ccccc2)C(=O)C(=O)O)cc1-c1ccc(OC(F)(F)F)cc1 [Compound 240]
Compound Concentration 5 μM
  Inhibition Rate of PAI-1 Activity (%): 62%
Compound Concentration 10 μM
  Inhibition Rate of PAI-1 Activity (%): 91%
Compound Concentration 25 μM
  Inhibition Rate of PAI-1 Activity (%): 95%

## CCCCCOc1ccc(-c2ccc(OC(F)(F)F)cc2)cc1N(CCCCCc1ccccc1)C(=O)C(=O)O [Compound 242]
Compound Concentration 5 μM
  Inhibition Rate of PAI-1 Activity (%): 88%
Compound Concentration 10 μM
  Inhibition Rate of PAI-1 Activity (%): 94%
